The target in this test is HCV RNA-dependent RNA polymerase (NS5B) (Hepatitis C virus genotype 1b (isolate BK) (HCV), UniProt P26663). Kind of test: RNA-Dependent RNA HCV NS5B (polymerase) Assay and IC50 Determination. The class given is biochemical. The note with it: purified HCV NS5B polymerase, polyA:U16 substrate, 32P-UTP incorporation; read-out: IC50. In short, it runs like this: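 Purified NS5B was incubated with 0.5 uM polyA:U16, 10 μM UTP plus ^32P-UTP in 50 mM Hepes-KOH pH 7.5, 5 mM MgCl2, 5 mM DTT, 2% glycerol and 0.01% Triton X-100. Inhibitor reactions ran 60 min at 37° C, and radiolabelled RNA product was quantified after filter capture. IC50 values were obtained from concentration series.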
HCV RNA-dependent RNA polymerase (NS5B), sequence (P26663 2420-3010): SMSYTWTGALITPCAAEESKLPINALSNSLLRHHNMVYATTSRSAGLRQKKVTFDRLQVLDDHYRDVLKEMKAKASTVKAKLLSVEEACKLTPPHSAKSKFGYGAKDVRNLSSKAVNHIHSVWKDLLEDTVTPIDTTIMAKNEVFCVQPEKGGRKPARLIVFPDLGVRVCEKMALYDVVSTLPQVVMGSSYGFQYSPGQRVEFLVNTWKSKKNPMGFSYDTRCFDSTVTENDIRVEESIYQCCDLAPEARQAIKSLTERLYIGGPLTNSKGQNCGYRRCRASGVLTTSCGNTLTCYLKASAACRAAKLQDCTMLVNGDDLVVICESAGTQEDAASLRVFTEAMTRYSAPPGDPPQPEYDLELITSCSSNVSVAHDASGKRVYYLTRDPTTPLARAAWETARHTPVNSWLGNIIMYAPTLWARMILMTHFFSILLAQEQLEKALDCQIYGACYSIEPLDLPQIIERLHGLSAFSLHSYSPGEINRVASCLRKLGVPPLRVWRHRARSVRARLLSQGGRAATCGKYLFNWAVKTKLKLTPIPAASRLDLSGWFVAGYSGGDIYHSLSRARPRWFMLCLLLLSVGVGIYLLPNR
As for `CNC(=O)c1c(-c2ccc(F)cc2)oc2cc(N(CCOCCOCCOC(C)(C)C(=O)OC(C)(C)C)S(C)(=O)=O)c(C3CC3)cc12` [Compound 26-6B, 2-{2-[2-(2-{[5-Cyclopropyl-2-(4-fluoro-phenyl)-3-methylcarbamoyl-benzofuran-6-yl]-methanesulfonyl-amino}-ethoxy)-ethoxy]-ethoxy}-2-methyl-propionic Acid Tert-butyl Ester], the IC50 (as a rule, the concentration needed to halve the response being measured) is over 1000 nM.

With `CNC(=O)c1c(-c2ccc(F)cc2)oc2cc(N(CCOCCOCCOC3(C(=O)O)CCCC3)S(C)(=O)=O)c(C3CC3)cc12` [Compound 26-7A, 1-{2-[2-(2-{[5-Cyclopropyl-2-(4-fluoro-phenyl)-3-methylcarbamoyl-benzofuran-6-yl]-methanesulfonyl-amino}-ethoxy)-ethoxy]-ethoxy}-cyclopentanecarboxylic Acid], the IC50 is under 100 nM.

Consider `CNC(=O)c1c(-c2ccc(F)cc2)oc2cc(N(CCOCCOCCOC(C)(C)C(=O)O)S(C)(=O)=O)c(C3CC3)cc12` [Compound 26-7B, 2-{2-[2-(2-{[5-Cyclopropyl-2-(4-fluoro-phenyl)-3-methylcarbamoyl-benzofuran-6-yl]-methanesulfonyl-amino}-ethoxy)-ethoxy]-ethoxy}-2-methyl-propionic Acid], for which the IC50 fell in the range of 100 to 1000 nM.

Regarding `CNC(=O)c1c(-c2ccc(F)cc2)oc2cc(N(CCOCCOCCOC(C)(C)C(=O)NO)S(C)(=O)=O)c(C3CC3)cc12` [Compound 26-8B, 5-Cyclopropyl-2-(4-fluoro-phenyl)-6-[(2-{2-[2-(1-hydroxycarbamoyl-1-methyl-ethoxy)-ethoxy]-ethoxy}-ethyl)-methanesulfonyl-amino]-benzofuran-3-carboxylic Acid Methylamide], the IC50 is over 1000 nM.

Turning to `CNC(=O)c1c(-c2ccc(F)cc2)oc2cc(N(CCOCCCCCOCC(=O)OC(C)(C)C)S(C)(=O)=O)c(C3CC3)cc12` [Compound 27-8A, [5-(2-{[5-Cyclopropyl-2-(4-fluoro-phenyl)-3-methylcarbamoyl-benzofuran-6-yl]-methanesulfonyl-amino}-ethoxy)-pentyloxy]-acetic Acid Tert-butyl Ester], the IC50 is over 1000 nM.

As for `CNC(=O)c1c(-c2ccc(F)cc2)oc2cc(N(CCOCCCCCOCC(=O)O)S(C)(=O)=O)c(C3CC3)cc12` [Compound 27-9A, [5-(2-{[5-Cyclopropyl-2-(4-fluoro-phenyl)-3-methylcarbamoyl-benzofuran-6-yl]-methanesulfonyl-amino}-ethoxy)-pentyloxy]-acetic Acid], the IC50 is 100 to 1000 nM.

On to `CNC(=O)c1c(-c2ccc(F)cc2)oc2cc(N(CCOCCCCCOC(C)C(=O)O)S(C)(=O)=O)c(C3CC3)cc12` (centres unmarked) [Compound 27-9B, 2-[5-(2-{[5-Cyclopropyl-2-(4-fluoro-phenyl)-3-methylcarbamoyl-benzofuran-6-yl]-methanesulfonyl-amino}-ethoxy)-pentyloxy]-propionic Acid], for which the IC50 is 100 to 1000 nM.

Regarding `CNC(=O)c1c(-c2ccc(F)cc2)oc2cc(N(CCCCCOCCCCC(=O)OC(C)(C)C)S(C)(=O)=O)c(C3CC3)cc12` [Compound 28-7A, 5-(5-{[5-Cyclopropyl-2-(4-fluoro-phenyl)-3-methylcarbamoyl-benzofuran-6-yl]-methanesulfonyl-amino}-pentyloxy)-pentanoic Acid Tert-butyl Ester], the IC50 is over 1000 nM.

Take `CNC(=O)c1c(-c2ccc(F)cc2)oc2cc(N(CCCCCOCCCCC(=O)O)S(C)(=O)=O)c(C3CC3)cc12` [Compound 28-8A, 5-((5-(N-(5-cyclopropyl-2-(4-fluorophenyl)-3-(methylcarbamoyl)benzofuran-6-yl)-methylsulfonamido)-pentyl)-oxy)-pentanoic Acid]: the IC50 is under 100 nM.

As for `CNC(=O)c1c(-c2ccc(F)cc2)oc2cc(N(CCCCCOCCCC(C)C(=O)O)S(C)(=O)=O)c(C3CC3)cc12` (centres unmarked) [Compound 28-8B, 5-(5-{[5-Cyclopropyl-2-(4-fluoro-phenyl)-3-methylcarbamoyl-benzofuran-6-yl]-methanesulfonyl-amino}-pentyloxy)-2-methyl-pentanoic Acid], the IC50 is under 100 nM.

Take `CNC(=O)c1c(-c2ccc(F)cc2)oc2cc(N(CCOCCOCc3ccc(C(=O)OC)c([N+](=O)[O-])c3)S(C)(=O)=O)c(C3CC3)cc12` [Compound 29-7, 4-[2-(2-{[5-Cyclopropyl-2-(4-fluoro-phenyl)-3-methylcarbamoyl-benzofuran-6-yl]-methanesulfonyl-amino}-ethoxy)-ethoxymethyl]-2-nitro-benzoic Acid Methyl Ester]: the IC50 is 100 to 1000 nM.

For the compound `CNC(=O)c1c(-c2ccc(F)cc2)oc2cc(N(CCOCCOCc3ccc(C(=O)O)c([N+](=O)[O-])c3)S(C)(=O)=O)c(C3CC3)cc12` [Compound 29-8, 4-[2-(2-{[5-Cyclopropyl-2-(4-fluoro-phenyl)-3-methylcarbamoyl-benzofuran-6-yl]-methanesulfonyl-amino}-ethoxy)-ethoxymethyl]-2-nitro-benzoic Acid], the IC50 lay in the range of 100 to 1000 nM.

`CNC(=O)c1c(-c2ccc(F)cc2)oc2cc(N(CCOCCOCc3ccc(C(=O)OC)c(N)c3)S(C)(=O)=O)c(C3CC3)cc12` [Compound 29-9, 2-Amino-4-[2-(2-{[5-cyclopropyl-2-(4-fluoro-phenyl)-3-methylcarbamoyl-benzofuran-6-yl]-methanesulfonyl-amino}-ethoxy)-ethoxymethyl]-benzoic Acid Methyl Ester]: the IC50 is 100 to 1000 nM.

On to `CNC(=O)c1c(-c2ccc(F)cc2)oc2cc(N(CCOCCOCc3ccc(C(=O)O)c(N)c3)S(C)(=O)=O)c(C3CC3)cc12` [Compound 29-10, 2-Amino-4-[2-(2-{[5-cyclopropyl-2-(4-fluoro-phenyl)-3-methylcarbamoyl-benzofuran-6-yl]-methanesulfonyl-amino}-ethoxy)-ethoxymethyl]-benzoic Acid], for which the IC50 was 100 to 1000 nM.

In the case of `CNC(=O)c1c(-c2ccc(F)cc2)oc2cc(N(CCOCCOCCOCC(C)=O)S(C)(=O)=O)c(C3CC3)cc12` [Compound 30-1, 5-Cyclopropyl-2-(4-fluoro-phenyl)-6-[methanesulfonyl-(2-{2-[2-(2-oxo-propoxy)-ethoxy]-ethoxy}-ethyl)-amino]-benzofuran-3-carboxylic acid methylamide], the IC50 is over 1000 nM.

`CCOC(=O)C(C)OCCOCCOCCN(c1cc2oc(-c3ccc(F)cc3)c(C(=O)NC)c2cc1C1CC1)S(C)(=O)=O` (centres unmarked) [Compound 30-2, 2-{2-[2-(2-{[5-Cyclopropyl-2-(4-fluoro-phenyl)-3-methylcarbamoyl-benzofuran-6-yl]-methanesulfonyl-amino}-ethoxy)-ethoxy]-ethoxy}-propionic acid ethyl ester]: the IC50 was over 1000 nM.

`CCOC(=O)CCOCCOCCOCCN(c1cc2oc(-c3ccc(F)cc3)c(C(=O)NC)c2cc1C1CC1)S(C)(=O)=O` [Compound 30-3, 3-{2-[2-(2-{[5-Cyclopropyl-2-(4-fluoro-phenyl)-3-methylcarbamoyl-benzofuran-6-yl]-methanesulfonyl-amino}-ethoxy)-ethoxy]-ethoxy}-propionic acid ethyl ester]: the IC50 was over 1000 nM.

In the case of `CNC(=O)c1c(-c2ccc(F)cc2)oc2cc(N(CCOCCOCCOCCOCc3cccc(C(=O)O)c3)S(C)(=O)=O)c(C3CC3)cc12` [Compound 30-4, 3-(2-{2-[2-(2-{[5-Cyclopropyl-2-(4-fluoro-phenyl)-3-methylcarbamoyl-benzofuran-6-yl]-methanesulfonyl-amino}-ethoxy)-ethoxy]-ethoxy}-ethoxymethyl)-benzoic acid], the IC50 was over 1000 nM.

With `CNC(=O)c1c(-c2ccc(F)cc2)oc2cc(N(CCOCCCc3cccc(C(C)=O)c3)S(C)(=O)=O)c(C3CC3)cc12` [Compound 30-5, 6-({2-[3-(3-Acetyl-phenyl)-propoxy]-ethyl}-methanesulfonyl-amino)-5-cyclopropyl-2-(4-fluoro-phenyl)-benzofuran-3-carboxylic acid methylamide], the IC50 is over 1000 nM.

With `CNC(=O)c1c(-c2ccc(F)cc2)oc2cc(N(CC(=O)NCC(=O)NCc3cccc(C(C)=O)c3)S(C)(=O)=O)c(C3CC3)cc12` [Compound 30-6, 6-[({[(3-Acetyl-benzylcarbamoyl)-methyl]-carbamoyl}-methyl)-methanesulfonyl-amino]-5-cyclopropyl-2-(4-fluoro-phenyl)-benzofuran-3-carboxylic acid methylamide], the IC50 was over 1000 nM.

Take `CNC(=O)c1c(-c2ccc(F)cc2)oc2cc(N(CCOCCOCCOCc3ccc(C(=O)O)cc3)S(C)(=O)=O)c(C3CC3)cc12` [Compound 30-7, 4-{2-[2-(2-{[5-Cyclopropyl-2-(4-fluoro-phenyl)-3-methylcarbamoyl-benzofuran-6-yl]-methanesulfonyl-amino}-ethoxy)-ethoxy]-ethoxymethyl}-benzoic acid]: the IC50 is over 1000 nM.

On to `CNC(=O)c1c(-c2ccc(F)cc2)oc2cc(N(CCOCCOCCCc3cccc(C(=O)CC(=O)C(=O)O)c3)S(C)(=O)=O)c(C3CC3)cc12` [Compound 30-8, 4-(3-{3-[2-(2-{[5-Cyclopropyl-2-(4-fluoro-phenyl)-3-methylcarbamoyl-benzofuran-6-yl]-methanesulfonyl-amino}-ethoxy)-ethoxy]-propyl}-phenyl)-2,4-dioxo-butyric acid], for which the IC50 is over 1000 nM.

For the compound `CNC(=O)c1c(-c2ccc(F)cc2)oc2cc(N(CCOCCCCOc3cccc(C(=O)CC(=O)C(=O)O)c3)S(C)(=O)=O)c(C3CC3)cc12` [Compound 30-9, 4-{3-[4-(2-{[5-Cyclopropyl-2-(4-fluoro-phenyl)-3-methylcarbamoyl-benzofuran-6-yl]-methanesulfonyl-amino}-ethoxy)-butoxy]-phenyl}-2,4-dioxo-butyric acid], the IC50 is over 1000 nM.
